Experimental data: article PMC9897792, “Discovery of novel 2-(4-(benzyloxy)-5-(hydroxyl) phenyl) benzothiazole derivatives as multifunctional MAO-B inhibitors for the treatment of Parkinson’s disease” (Journal of Enzyme Inhibition and Medicinal Chemistry, 2023)
Where “and” joins values, the source holds several entries; their conditions need not be identical. Identical values can stand only once. Like-named read-outs stand apart in the source and are kept apart here.

Legend:
MAO-A = biological target: T1, MAO-A (Homo sapiens, UniProt P21397); experiment: MAO-A inhibition, kynuramine method; type: biochemical; conditions: for inhibition at 10 µM: read-out: %Inhibition MAO-A
T1 sequence (P21397 1-527): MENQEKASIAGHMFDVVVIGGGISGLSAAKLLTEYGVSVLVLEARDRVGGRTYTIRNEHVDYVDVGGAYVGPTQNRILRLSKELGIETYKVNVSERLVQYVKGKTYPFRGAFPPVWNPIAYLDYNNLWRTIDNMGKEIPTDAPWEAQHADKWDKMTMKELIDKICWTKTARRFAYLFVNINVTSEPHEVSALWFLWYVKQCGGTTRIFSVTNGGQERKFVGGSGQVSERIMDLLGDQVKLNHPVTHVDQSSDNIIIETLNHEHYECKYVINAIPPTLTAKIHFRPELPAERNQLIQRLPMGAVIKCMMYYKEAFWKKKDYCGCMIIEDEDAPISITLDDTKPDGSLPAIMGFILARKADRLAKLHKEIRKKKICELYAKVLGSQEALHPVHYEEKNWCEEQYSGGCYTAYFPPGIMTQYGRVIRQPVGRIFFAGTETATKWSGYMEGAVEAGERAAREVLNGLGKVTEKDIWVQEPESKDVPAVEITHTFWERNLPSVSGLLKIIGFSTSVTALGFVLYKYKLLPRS

MAO-B [1] = biological target: T2, MAO-B (Homo sapiens, UniProt P27338); experiment: MAO-B inhibition, kynuramine method; type: biochemical
T2 sequence (P27338 1-520): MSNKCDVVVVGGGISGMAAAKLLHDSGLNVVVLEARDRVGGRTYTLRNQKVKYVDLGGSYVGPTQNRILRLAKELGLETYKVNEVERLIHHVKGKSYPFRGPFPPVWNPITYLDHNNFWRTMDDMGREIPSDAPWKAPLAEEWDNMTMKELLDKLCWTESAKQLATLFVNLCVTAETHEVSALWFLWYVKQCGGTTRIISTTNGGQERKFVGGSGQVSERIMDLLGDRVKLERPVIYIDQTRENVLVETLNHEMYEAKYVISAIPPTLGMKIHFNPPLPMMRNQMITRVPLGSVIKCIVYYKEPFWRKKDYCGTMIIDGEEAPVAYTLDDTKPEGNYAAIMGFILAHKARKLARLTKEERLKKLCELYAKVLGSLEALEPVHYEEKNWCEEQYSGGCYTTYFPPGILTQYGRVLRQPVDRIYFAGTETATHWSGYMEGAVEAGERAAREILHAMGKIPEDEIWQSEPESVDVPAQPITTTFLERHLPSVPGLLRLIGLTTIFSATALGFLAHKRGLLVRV

[2] = Oxygen radical absorbance capacity assay with fluorescein (ORAC-FL); conditions: Trolox as standard
Procedure: Oxygen radical absorbance capacity assay which used fluorescein (ORAC-FL) was performed to measure the antioxidant activities of 2-(4-(benzyloxy)-5-(hydroxyl) phenyl) benzothiazole derivatives. […] It reflected that introduction of alkyl substituents on benzyloxy ring was more beneficial for the improvement of in vitro antioxidant activity. However, the position and number of substituents seem to have little influence on the antioxidative activities.
Test compounds solution (20 µL, 10 µM) and fluorescein solution (120 µL, 250 nM) were added to a black 96-wells plate in order. The mixture was incubated for 15 min at 37 °C. Then, AAPH solution (60 µL, 40 mM) was added through an automatic sampler. The fluorescence was recorded with excitation and emission wavelengths at 485 and 535 nm on the multifunctional enzyme marker (Thermo Scientific), and the area under the curve (AUC) was calculated automatically. Trolox was used as a reference, and the antioxidant activities of the compounds were expressed as Trolox equivalent. The test compound solution was replaced with PBS (20 µL) in blank well. The antioxidant activities of the test compounds were calculated by the formula: [(AUCsample − AUCblank)/(AUCtrolox − AUCblank)] × [(Trolox concentration/test sample concentration)].

[3] = PAMPA-BBB literature values ref 1 (Di et al., Eur. J. Med. Chem. 2003, 38, 223); cited from earlier work
MAO-B [4] = biological target: T2, MAO-B; experiment: Reversibility study of MAO-B inhibition by dialysis method; type: biochemical; conditions: for MAO-B inhibitory mode: classified by MAO-B catalytic activity in dialysis group; for MAO-B catalytic activity, undialysis group / MAO-B catalytic activity, dialysis group: test compound 4 × IC50; for MAO-B catalytic activity, undialysis group: 4 °C for 24 h without dialysis; for MAO-B catalytic activity, dialysis group: dialysis 24 h
Procedure: The mixture was incubated at 37 °C for 30 min and transferred to dialysis bag (MWCO: 10 000, flattening width: 24 mm, length: 8–10 cm). Then, this dialysis bag was placed in 200 ml PBS for 24 h, and the outer PBS was replaced with fresh at 3 and 7 h, respectively. As for the undialysis group, the mixture was placed at 4 °C for 24 h. After dialysis, the mixtures (40 µL) in the dialysis bag were taken out to measure the catalytic activity, and the test method was similar with the inhibition experiment of MAOs. […] The test compound solution was replaced with PBS buffer at the same volume in the blank group.

[5] = at the concentration of 10.0 μM, n.a. = no active, percent inhibition <5.0%

Row | Structure (SMILES) | inhibition at 10 µM (MAO-A; [5]) | IC50 (MAO-B [1]) | ORAC [2] | also measured
1 | Oc1cc(OCc2ccccc2)ccc1-c1nc2ccccc2s1 [3a, 2-(Benzo[d]thiazol-2-yl)-5-(benzyloxy)phenol] | 24.83 ± 0.11% | 3930 ± 259 nM | 2.13 ± 0.05 Trolox equivalents | –
2 | Oc1cc(OCc2ccccc2F)ccc1-c1nc2ccccc2s1 [3b, 2-(Benzo[d]thiazol-2-yl)-5-((2-fluorobenzyl)oxy)phenol] | 14.25 ± 0.07% | 1670 ± 146 nM | 2.32 ± 0.02 Trolox equivalents | –
3 | Oc1cc(OCc2ccccc2Cl)ccc1-c1nc2ccccc2s1 [3c, 2-(Benzo[d]thiazol-2-yl)-5-((2-chlorobenzyl)oxy)phenol] | 19.58 ± 0.06% | 2900 ± 31 nM | 2.26 ± 0.09 Trolox equivalents | –
4 | Oc1cc(OCc2cccc(F)c2)ccc1-c1nc2ccccc2s1 [3d, 2-(Benzo[d]thiazol-2-yl)-5-((3-fluorobenzyl)oxy)phenol] | 18.41 ± 0.05% | 526 ± 24 nM | 2.24 ± 0.10 Trolox equivalents | –
5 | Oc1cc(OCc2cccc(Cl)c2)ccc1-c1nc2ccccc2s1 [3e, 2-(Benzo[d]thiazol-2-yl)-5-((3-chlorobenzyl)oxy)phenol] | 31.6 ± 0.28% | 1050 ± 83 nM | 2.31 ± 0.07 Trolox equivalents | –
6 | Oc1cc(OCc2cccc(C(F)(F)F)c2)ccc1-c1nc2ccccc2s1 [3f, 2-(Benzo[d]thiazol-2-yl)-5-((3-(trifluoromethyl)benzyl)oxy)phenol] | – | 951 ± 62 nM | 2.25 ± 0.07 Trolox equivalents | –
7 | COc1cccc(COc2ccc(-c3nc4ccccc4s3)c(O)c2)c1 [3g, 2-(Benzo[d]thiazol-2-yl)-5-((3-methoxybenzyl)oxy)phenol] | – | 1520 ± 97 nM | 2.30 ± 0.04 Trolox equivalents | –
8 | Oc1cc(OCc2ccc(Cl)cc2)ccc1-c1nc2ccccc2s1 [3i, 2-(Benzo[d]thiazol-2-yl)-5-((4-chlorobenzyl)oxy)phenol] | 47.14 ± 0.21% | 314 ± 10 nM | 2.23 ± 0.06 Trolox equivalents | –
9 | Cc1ccc(COc2ccc(-c3nc4ccccc4s3)c(O)c2)cc1 [3j, 2-(Benzo[d]thiazol-2-yl)-5-((4-methylbenzyl)oxy)phenol] | 34.32 ± 0.09% | 1940 ± 78 nM | 2.39 ± 0.14 Trolox equivalents | –
10 | CC(C)(C)c1ccc(COc2ccc(-c3nc4ccccc4s3)c(O)c2)cc1 [3k, 2-(Benzo[d]thiazol-2-yl)-5-((4-(tert-butyl)benzyl)oxy)phenol] | – | 3407 ± 32 nM | 2.48 Trolox equivalents and 2.48 ± 0.13 Trolox equivalents | –
11 | O=[N+]([O-])c1ccc(COc2ccc(-c3nc4ccccc4s3)c(O)c2)cc1 [3l, 2-(Benzo[d]thiazol-2-yl)-5-((4-nitrobenzyl)oxy)phenol] | 25.16 ± 0.13% | 784 ± 28 nM | 2.14 ± 0.06 Trolox equivalents | –
12 | Oc1cc(OCc2ccc(F)c(F)c2)ccc1-c1nc2ccccc2s1 [3m, 2-(Benzo[d]thiazol-2-yl)-5-((3,4-difluorobenzyl)oxy)phenol] | 47.52 ± 0.36% | 423 ± 9 nM | 2.24 ± 0.11 Trolox equivalents | –
13 | Oc1cc(OCc2ccc(Cl)c(Cl)c2)ccc1-c1nc2ccccc2s1 [3n, 2-(Benzo[d]thiazol-2-yl)-5-((3,4-dichlorobenzyl)oxy)phenol] | – | 970 ± 11 nM | 2.21 ± 0.09 Trolox equivalents | IC50 (MAO-A): 9.8 ± 0.19 µM
14 | Oc1cc(OCc2ccc(F)c(Cl)c2)ccc1-c1nc2ccccc2s1 [3o, 2-(Benzo[d]thiazol-2-yl)-5-((3-chloro-4-fluorobenzyl)oxy)phenol] | 49.9 ± 0.53% | 521 ± 7 nM | 2.27 ± 0.05 Trolox equivalents | –
15 | O=C1Nc2ccc(Cl)cc2C(c2ccccc2)=NC1O (centres unmarked) [Oxazepam] | – | – | – | Pe (Bibl) [3]: 1e-05 cm/s
16 | CN1C(C(=O)Nc2ccccn2)=C(O)c2ccccc2S1(=O)=O [Piroxicam] | – | – | – | Pe (Bibl) [3]: 2.5e-06 cm/s
17 | C#CCN[C@@H]1CCc2ccccc21 [Rasagiline] | – | – | – | MAO-B inhibitory mode (MAO-B [4]): irreversible (irreversible inhibition: MAO-B catalytic activity ≤ 20%); MAO-B catalytic activity, undialysis group (MAO-B [4]): 2.7%; MAO-B catalytic activity, dialysis group (MAO-B [4]): 4.2%
18 | C[C@H](NCc1ccc(OCc2cccc(F)c2)cc1)C(N)=O [Safinamide] | – | – | 1.12 ± 0.01 Trolox equivalents | MAO-B inhibitory mode (MAO-B [4]): reversible (reversible inhibition: MAO-B catalytic activity ≥ 80%); MAO-B catalytic activity, undialysis group (MAO-B [4]): 39.3%; MAO-B catalytic activity, dialysis group (MAO-B [4]): 93.0%; inhibition at 10 µM (MAO-A): 24.9 ± 0.04%
19 | Cn1c(=O)c2[nH]cnc2n(C)c1=O [Theophylline] | – | – | – | Pe (Bibl) [3]: 1.2e-07 cm/s
